For data set [1], the system named is porcine aortic smooth muscle cells. Description: Porcine smooth muscle cell antiproliferation, serum stimulation (3H thymidine incorporation). In kind it is cell-based. As to conditions: serum-stimulated. Background: Uptake of a labelled nucleoside into DNA is a usual measure of proliferation.
Experimental: (§2) The ability of the compounds of the present invention to inhibit smooth muscle cell proliferation was established using isolated porcine aortic smooth muscle cells in a modification of the procedure of Castellot et al. J. Biol. Chem 257(19) 11256 (1982), as follows:
(§3) Fresh porcine aortas, scrupulously cleansed of fatty tissue, are rinsed in sterile phosphate-buffered saline with 2% antibiotic-antimycotic (100×) liquid (10,000 units of penicillin (base), 10,000 μg of streptomycin (base), and 25 μg of amphotericin B/mL utilizing penicillin G (sodium salt), streptomycin sulfate, and amphotericin B as Fungizone® in 0.85% saline, available from Gibco Laboratories, Grand Island Biological Co., Grand Island, N.Y.). The tissue is then digested in 10-15 mL of an enzyme solution containing collagenase type I, 165 U/mL; elastase type III, 15 U/mL; BSA, 2 mg/mL; and soybean trypsin inhibitor, 0.375 mg/mL, followed by incubation at 37° C. under 5% CO2 atmosphere for 10 to 15 minutes. After this treatment, the outer surface adventitia is removed by peeling with a forceps. The aorta is then longitudinally cut and laid open and the endothelial layer is removed by scraping.
(§4) The medial layer of cells is rinsed in the enzyme solution, and placed in a new 100 mm dish with 10 mL of enzyme solution. The medial layer of cells is minced using a fine pair of scissors and digested for 2-3 hours at 37° C. in 30 mL of fresh enzyme solution. After digestion, the medial tissue is homogenized using a sterile Pasteur pipette with a fire polished tip or an Eppendorf pipetter with a 200-1000 μL sterile pipette tip. The suspension is then centrifuged for 10 minutes at 8000 rpm and the pellet is suspended in 4-6 mL of fresh enzyme solution and plated onto 4-6 100 mm flasks with vented caps. The cells are then allowed to grow to confluence and split using 0.25% trypsin. The cells are evaluated for purity and overall quality using antibody to SMC actin.
(§5) The cells are assayed in early passage (generally passage 3-7) at sub-confluent conditions. Cultures are grown in 16 mm (24 well) multi-well culture dishes in media 199 supplemented with 10% fetal bovine serum and 2% antibiotic/antimycotic. At subconfluence, the cells are placed in a defined serum free, lymphocyte medium (AIM-V; Gibco) for 24-48 hours prior to initiating the experimental protocoL
(§6) The standard test procedure is initiated by addition of the test compound, ^3 H thymidine and serum or a specific growth factor to the serum deprived synchronized cells. Growth factor and serum stimulations are optimized for each cell type. The test compounds are added to each well at 50 fold dilution (20 μL/well) and the plates are incubated for 24-36 hours at 37° C. in 5% CO2 atmosphere. Test compounds are dissolved in 50% ethanol and assayed at 1, 10, and 100 μM. As a control, RG 50872 (Bilder, G. A.; et al., Am. J. Cell Physiol., 1991; 260: C721) is routinely assayed under the conditions of each cell preparation at a concentration of 5 μM.
(§7) At the completion of the experiment, the plates are placed on ice, washed three times with ice cold PBS and incubated in ice cold 10% trichloroacetic acid (TCA) for 30 minutes to remove acid soluble proteins. Each solution is transferred to a scintillation vial containing 0.4N HCl (500 μL/vial to neutralize NaOH) and each well is rinsed two times with water (500 μL) for a total volume of 2 mL/vial.
(§8) Data is quantitated by subjecting the vials to a scintillation counter, in triplicate, for both control and experimental samples. […] Experimental data is obtained from cells maximally stimulated with growth factor or serum and treated with a test compound. (The platelet-derived growth factor used in the assay was human recombinant PDGF-AB purchased from Upstate Biotechnology Inc., Lake Placid, N.Y.). Data is expressed as a percent of control from which IC50 s are determined.
For data set [2] the test system is unchanged. Description: Porcine smooth muscle cell antiproliferation, PDGF stimulation (3H thymidine incorporation). Type of data set: cell-based. The note with it: PDGF-stimulated (human recombinant PDGF-AB).
Experimental: as §2, §3, §4, §5, §6, §7, §8
The test system of data set [3] is porcine smooth muscle cells. Description: Cytotoxicity, modified MTT assay, % viable cells. As to conditions: serum-free medium, 24 hours, 37° C. Type of data set: cell-based. Also noted: dose or concentration left out as unconfirmed. The method, then: (§1) To distinguish cytotoxicity from the ability of a compound to prevent proliferation, the test compounds were examined using a commercial modification of the MTT assay. Briefly, cells were grown in 24 well plates to 70-80% confluency. The cells were serum deprived for 24-48 hours prior to initiation of the experimental protocol. To insure that the MTT assay monitored toxicity rather than proliferation, the cells were incubated with […] test compound in fresh medium without serum for 24 hours at 37° C. in a humidified CO2 incubator. Upon completion of the compound treatment, MTT indicator dye was added for 4 hours at 37° C. Cells were then solubilized and aliquots from each well were transferred to a 96-well plate for analysis. Absorbance at 570 nm wavelength with a reference wavelength of 630 nm was recorded using an ELISA plate reader.
On the technique in general: Tetrazolium assays rely on reduction of a dye to a coloured formazan, in cell work by metabolically active cells.

The nature of data set [4]: Cytotoxicity, modified MTT assay, % viable cells. Also noted: dose or concentration left out as unconfirmed. In kind it is cell-based, porcine. The note with it: pig, smooth muscle cells, serum-free medium, 37° C. The method, then: as §1

Counter-ions that a name gives are not always drawn.

Consider “4-[5-(Hydroxy-(phenyl)-methyl)-2-propyl -benzoimidazol-1-ylmethyl]-benzoic acid [Example 6]”, for which, in data set [1] (20 μM), the “Porcine Smooth Muscle Cell Antiproliferation, Serum, % Inhibition at 20 μM” value is reported as 45.9%. In data set [2], the IC50 (usually the midpoint of a concentration-inhibition curve) is 11.2 µM. Also, the “Cytotoxicity, % Viable Cells” value in data set [3] came out at 85.5%.
For `CCCc1nc2cc(C(=O)c3ccccc3)ccc2[nH]1` [Example 1, Phenyl-(2-propyl-1H-benzoimidazol-5-yl)-methanone], in data set [1] (Sus scrofa, 20 μM), 20 µM produced 39.4% inhibition. Moreover, the IC50 in data set [2] (Sus scrofa) turned out to be 12.9 µM. For the same compound, the viability (commonly a per cent measure of how many cells are alive, often set against a control) at 24 h in data set [4] came to 80%.
`CCCc1nc2cc(C(=O)c3ccccc3)ccc2n1Cc1ccc(C(=O)OCC)cc1` [Example 2, 4-(5-Benzoyl-2-propyl-benzoimidazol-1-ylmethyl) -benzoic acid ethyl ester]: the figures for the IC50 in data set [1] (Sus scrofa) and in data set [2] (Sus scrofa) were 1.04 µM and 1.17 µM, respectively. The compound also showed a viability at 24 h in data set [4] of 100%.
On the same counts, the results for `CCCc1nc2ccc(C(=O)c3ccccc3)cc2n1Cc1ccc(C(=O)OCC)cc1` [Example 3, 4-(6-Benzoyl-2-propyl-benzoimidazol-1-ylmethyl) -benzoic acid ethyl ester] are 1.58 µM, 1.23 µM and 100%.
On to `CCCc1nc2ccc(C(=O)c3ccccc3)cc2n1Cc1ccc(C(=O)O)cc1` [Example 4, 4-(6-Benzoyl-2-propyl-benzoimidazol-1-ylmethyl) benzoic acid], for which at 20 µM the inhibition in data set [1] (Sus scrofa, 20 μM) was 61.8%. Further, the “Porcine Smooth Muscle Cell Antiproliferation, PDGF, % Inhibition (concentration not given)” value in data set [2] (concentration not given) came out at 0%. This compound also displayed a viability at 24 h in data set [4] of 100%.
Consider `CCCc1nc2cc(C(=O)c3ccccc3)ccc2n1Cc1ccc(C(=O)O)cc1` [Example 5, 4-(5-Benzoyl-2-propyl-benzoimidazol-1-ylmethyl)-benzoic acid], for which the inhibition (usually the share of the control response that was lost under treatment) at 20 µM in data set [1] (Sus scrofa, 20 μM) turned out to be 41%. For the same compound, in data set [2] (Sus scrofa), the IC50 came to 15.9 µM. This compound also yielded a viability at 24 h in data set [4] of 78%.
On to `CCCc1nc2cc(C(O)c3ccccc3)ccc2n1Cc1ccc(C(=O)O)cc1` (stereo not drawn) [Example 7, 4-[5-(Hydroxy-(phenyl)-methyl)-2-propyl-benzoimidazol-1-ylmethyl]-benzoic acid hydrochloride], for which, in data set [1] (Sus scrofa, 10 μM), 10 µM produced 36% inhibition. Moreover, the IC50 in data set [2] (Sus scrofa) came to 17.6 µM. For the same compound, the viability at 24 h in data set [4] came to 85%.
In turn, `CCCc1nc2cc(C(=O)c3ccccc3)ccc2n1Cc1ccc(Cl)c(Cl)c1` [Example 8, [1-(3,4-Dichloro-benzyl)-2-propyl-1H-benzoimidazol-5-yl]-phenyl-methanone] had an inhibition at 20 µM in data set [1] (Sus scrofa, 20 μM) of 90%. Also, the IC50 in data set [2] (Sus scrofa) fell in the range of 0.096 to 0.465 µM. The compound also registered a viability at 24 h in data set [4] of 100%.
Turning to `COc1cc(-c2nc3cc(C(=O)c4ccccc4)ccc3[nH]2)ccc1O` [Example 9, [2-(4-Hydroxy-3-methoxy-phenyl)1H-benzoimidazol-5-yl]-phenyl-methanone], the IC50 fell in the range of 8.03 to 11.4 µM in data set [1] (Sus scrofa) and 3.74 to 4.14 µM in data set [2] (Sus scrofa). In data set [4], this compound came in with a viability at 24 h of 100%.
As to `CCCCCCOc1ccc(-c2nc3cc(C(=O)c4ccccc4)ccc3[nH]2)cc1OC` [Example 10, [2-(4-Hexyloxy-3-methoxy-phenyl)-1H benzoimidazol-5-yl]phenyl-methanone], the results for the IC50 in data set [1] (Sus scrofa) and in data set [2] (Sus scrofa) were 13.5 µM and 0.762 µM, respectively. The viability at 24 h in data set [4] worked out at 100%.
With `O=C(c1ccccc1)c1ccc2[nH]c(-c3ccc(OC(F)(F)F)cc3)nc2c1` [Example 11, Phenyl-[2-(4-trifluoromethoxy-phenyl)-1H -benzoimidazol-5-yl]methanone], the IC50 came out at 1.82 µM in data set [1] (Sus scrofa) and 7.7 µM in data set [2] (Sus scrofa). The viability at 24 h in data set [4] was determined as 100%.
`COc1ccc(Cc2nc3cc(C(=O)c4ccccc4)ccc3[nH]2)cc1OC` [Example 12, [2-(3,4-Dimethoxybenzyl)-1H-benzoimidazol-5-yl]-phenyl-methanone]: the values for the IC50 in data set [1] (Sus scrofa) and in data set [2] (Sus scrofa) were 7.74 µM and 0.081 to 0.14 µM, respectively. Further, in data set [4], the viability at 24 h amounted to 100%.

The record behind these values is patent US6288100A, “Benzimidazole derivatives” (American Home Products Corporation, priority 1995, dated 2001).
